Patent US20050053647A1, “Pharmaceutical product comprising the active substance diamorphine, and its use in a process for treating opiate addiction” (priority 1999, published 2005)
≈ marks a conversion by molar mass, not a printed value.

Key:
[1] = Saturation solubility of diamorphine base in solvents
heroin addicts = settings: cited from earlier work
[2] = Rate of hydrolytic breakdown of diamorphine base in solvents (diamorphine content over time); settings: for Diamorphine content: area percentages
[3] = In vitro skin permeation from TTS, nude guinea pig skin model; format: in vitro ADME
Method: Diamorphine is determined as total of heroin+morphine metabolite.

## CC(=O)Oc1ccc2c3c1O[C@H]1[C@@H](OC(C)=O)C=C[C@H]4[C@@H](C2)N(C)CC[C@@]341 [diamorphine base, diamorphine]
[1]; Benzyl nicotinate, organic solvent or mixture
  solubility: 23.2 mg/mL (≈ 62.8 mM)
[1]; Benzyl nicotinate/Vitamin E 1:1, organic solvent or mixture
  solubility: 17.7 mg/mL (≈ 47.9 mM)
[1]; Dimethylisosorbide, organic solvent or mixture
  solubility: 12.8 mg/mL (≈ 34.6 mM)
[1]; Dimethylisosorbide/Vitamin E 1:1, organic solvent or mixture
  solubility: 9.82 mg/mL (≈ 26.6 mM)
[1]; Lemon oil, oil or lipid
  solubility: 10.3 mg/mL (≈ 27.9 mM)
[1]; Lemon oil/Vitamin E 1:1, oil or lipid
  solubility: 8 mg/mL (≈ 21.7 mM)
[1]; N-Methylpyrrolidone, organic solvent or mixture
  solubility: 32.2 mg/mL (≈ 87.2 mM)
[1]; N-Methylpyrrolidone/Vitamin E 1:1, organic solvent or mixture
  solubility: 24.8 mg/mL (≈ 67.1 mM)
[1]; Oleic acid, oil or lipid
  solubility: 22.6 mg/mL (≈ 61.2 mM)
[1]; Oleic acid/Vitamin E 1:1, oil or lipid
  solubility: 17.2 mg/mL (≈ 46.6 mM)
[1]; R-(+)-Limonene, organic solvent or mixture
  solubility: 25.1 mg/mL (≈ 67.9 mM)
[1]; R-(+)-Limonene/Vitamin E 1:1, organic solvent or mixture
  solubility: 19 mg/mL (≈ 51.4 mM)
[1]; Tween 80, organic solvent or mixture
  solubility: 5.81 mg/mL (≈ 15.7 mM)
[1]; Tween 80/Vitamin E 1:1, organic solvent or mixture
  solubility: 4.45 mg/mL (≈ 12 mM)
[1]; Vitamin E, oil or lipid
  solubility: 1.62 mg/mL (≈ 4.39 mM)
Heroin addicts; state-controlled administration, intravenous or pulmonary (cigarettes), 969 heroin addicts
  State of health of the heroin addicts: Marked improvements
[2]; combinations of vitamin E with solvent (Table 1)
  Effect of combinations of vitamin E with a further aprotic solvent on the rate of hydrolytic breakdown: surprisingly positive stabilizing effect
[2]; solvent Benzyl nicotinate/Vitamin E 1:1, t = 0.5 h
  Diamorphine content: 99.2%
[2]; solvent Benzyl nicotinate/Vitamin E 1:1, t = 24 h
  Diamorphine content: 99.0%
[2]; solvent Benzyl nicotinate, t = 0.5 h
  Diamorphine content: 97.8%
[2]; solvent Benzyl nicotinate, t = 24 h
  Diamorphine content: 86.5%
[2]; solvent Dimethylisosorbide/Vitamin E 1:1, t = 0.5 h
  Diamorphine content: 100%
[2]; solvent Dimethylisosorbide/Vitamin E 1:1, t = 24 h
  Diamorphine content: 99.8%
[2]; solvent Dimethylisosorbide, t = 0.5 h
  Diamorphine content: 98.5%
[2]; solvent Dimethylisosorbide, t = 24 h
  Diamorphine content: 93.5%
[2]; solvent Lemon oil/Vitamin E 1:1, t = 0.5 h
  Diamorphine content: 99.1%
[2]; solvent Lemon oil/Vitamin E 1:1, t = 24 h
  Diamorphine content: 98.9%
[2]; solvent Lemon oil, t = 0.5 h
  Diamorphine content: 93.5%
[2]; solvent Lemon oil, t = 24 h
  Diamorphine content: 80.5%
[2]; solvent N-Methylpyrrolidone/Vitamin E 1:1, t = 0.5 h
  Diamorphine content: 99.8%
[2]; solvent N-Methylpyrrolidone/Vitamin E 1:1, t = 24 h
  Diamorphine content: 99.7%
[2]; solvent N-Methylpyrrolidone, t = 0.5 h
  Diamorphine content: 97.8%
[2]; solvent N-Methylpyrrolidone, t = 24 h
  Diamorphine content: 87.8%
[2]; solvent Oleic acid/Vitamin E 1:1, t = 0.5 h
  Diamorphine content: 99.6%
[2]; solvent Oleic acid/Vitamin E 1:1, t = 24 h
  Diamorphine content: 99.6%
[2]; solvent Oleic acid, t = 0.5 h
  Diamorphine content: 97.4%
[2]; solvent Oleic acid, t = 24 h
  Diamorphine content: 90.3%
[2]; solvent R-(+)-Limonene/Vitamin E 1:1, t = 0.5 h
  Diamorphine content: 99.7%
[2]; solvent R-(+)-Limonene/Vitamin E 1:1, t = 24 h
  Diamorphine content: 99.6%
[2]; solvent R-(+)-Limonene, t = 0.5 h
  Diamorphine content: 96.7%
[2]; solvent R-(+)-Limonene, t = 24 h
  Diamorphine content: 87.7%
[2]; solvent Tween 80/Vitamin E 1:1, t = 0.5 h
  Diamorphine content: 100%
[2]; solvent Tween 80/Vitamin E 1:1, t = 24 h
  Diamorphine content: 100%
[2]; solvent Tween 80, t = 0.5 h
  Diamorphine content: 99%
[2]; solvent Tween 80, t = 24 h
  Diamorphine content: 93.4%
[2]; solvent Vitamin E, t = 0.5 h
  Diamorphine content: 100%
[2]; solvent Vitamin E, t = 24 h
  Diamorphine content: 100%
[3]; TTS matrix of same base formulation and loading, citrate buffer pH=3.0 + 0,1% NaN3, T=37° C., diamorphine determined as total of heroin + morphine metabolite
  Skin passage in relation to morphine and buprenorphine: better skin passage
[3]; nude guinea pig skin, TTS of identical formulation, in some cases
  Skin flux in flow equilibrium (permeation rate) compared with morphine and buprenorphine: markedly higher

## CCC(=O)C(CC(C)N(C)C)(c1ccccc1)c1ccccc1 (centres unmarked) [methadone]
Heroin addicts; even on intravenous administration, Swiss experiment
  Therapy of heroin dependents compared with heroin: inferior to heroin
